Each structure is given as a SMILES string.

One test concerns Podosphaera fuliginea. Description: Antifungal activity against Podosphaera fuliginea infected compound-pre-treated cucumber seedlings at 300 ppm incubated for 2 days prior to infection measured after 4 days relative to buthiobate. It counts as functional.
A further test deals with Rhizoctonia solani. Put plainly: Antifungal activity against Rhizoctonia solani infected compound-pre-treated rice seedlings at 300 ppm incubated for 2 days prior to infection measured after 4 days relative to diclomezine. The test is classed as functional.

Consider `C[Si](C)(C)CC(C#N)(Cn1cncn1)c1ccc(Cl)cc1Cl` (centres undefined), for which the Activity_index in the test on Podosphaera fuliginea and in the test on Rhizoctonia solani was 2 throughout.
With `C[Si](C)(C)CC(C#N)(Cn1cncn1)c1ccc(Cl)c(Cl)c1` (centres undefined), the Activity_index was found to be 2 in the test on Podosphaera fuliginea and 0 in the test with Rhizoctonia solani.
For `C[Si](C)(CC(C#N)(Cn1cncn1)c1ccc(Cl)cc1)c1ccccc1` (centres undefined), the results for the Activity_index with Podosphaera fuliginea and in the test with Rhizoctonia solani were 2 and 0, respectively.
Take `C[Si](C)(CC(C#N)(Cn1cncn1)c1ccccc1)c1ccccc1` (centres undefined): the Activity_index worked out at 2 with Podosphaera fuliginea and 0 in the test on Rhizoctonia solani.
For `C[Si](C)(CC(C#N)(Cn1cncn1)c1cccc(Oc2ccccc2)c1)c1ccccc1` (centres undefined) the same measures were 0 and 0.
In the case of `C[Si](C)(C)CC(C#N)(Cn1cncn1)c1ccc(F)cc1` (centres undefined), the Activity_index with Podosphaera fuliginea is reported as 0; in the test on Rhizoctonia solani, 2.
As for `C[Si](C)(C)CC(C#N)(Cn1cncn1)c1ccc(Cl)cc1` (centres undefined), the Activity_index in the test with Podosphaera fuliginea was found to be 0; in the test on Rhizoctonia solani, 2.
As to `C[Si](C)(C)CC(C#N)(Cn1cncn1)c1ccccc1` (centres undefined), the Activity_index in the test on Podosphaera fuliginea and with Rhizoctonia solani was 2 in each case.
For `COc1ccc(C(C#N)(Cn2cncn2)C[Si](C)(C)C)cc1` (centres undefined), the Activity_index with Podosphaera fuliginea and in the test with Rhizoctonia solani was 2 in each case.
Regarding `Cc1ccc(C(C#N)(Cn2cncn2)C[Si](C)(C)C)cc1` (centres undefined), the Activity_index in the test on Podosphaera fuliginea was found to be 2; with Rhizoctonia solani it was 0.
For `C[Si](C)(C)CC(C#N)(Cn1cncn1)c1ccccc1Cl` (centres undefined), the Activity_index in the test with Podosphaera fuliginea was 0; in the test on Rhizoctonia solani, 2.
Taken in the same sequence, the figures for `C[Si](C)(C)CC(C#N)(Cn1cncn1)c1cccc(Cl)c1` (centres undefined) were 2 and 0.

These data come from ChEMBL document CHEMBL3044581, “Synthesis and fungicidal activities of silicon-containing derivatives of 2-aryl-3-(1H-1,2,4-triazol-1-yl)propanenitriles” (2001).
